According to paper PMC9608142, “Population pharmacokinetic analysis, renal safety, and dosing optimization of polymyxin B in lung transplant recipients with pneumonia: A prospective study” (Frontiers in Pharmacology, 2022):
Where two headings read alike, the source gives them in different places. Bridge positions count the residues as written; N and C are the ends. Square brackets hold non-standard residues; d marks the D form. Peptide text beside a SMILES is read from it. * marks the point of attachment. X1 = CC[C@H](C)CCCCC(=O)*; Dab = NCC[C@H](N)C(=O)O

Tests used:
[1] = Population pharmacokinetic analysis (NONMEM) of polymyxin B plasma concentrations in lung transplant recipients; assay type: in vivo, human
Description: (§1) This prospective study was approved by the Ethical Committees of the affiliated Wuxi People’s Hospital of Nanjing Medical University, China (KS202002), in accordance with the Declaration of Helsinki. The informed consent was obtained from each patient or his/her legal representatives. Adult lung transplant recipients receiving polymyxin B sulfate against confirmed MDR Gram-negative bacterial infections at the affiliated Wuxi People’s Hospital of Nanjing Medical University, from January 2020 to December 2021, were included in this study. The inclusion criteria were as follows: 1) ≥18 years old; 2) diagnosis of pneumonia; 3) receiving polymyxin B therapy for at least 3 days; 4) having at least one plasma concentration of polymyxin B. The exclusion criteria were as follows: 1) allergic or intolerant to polymyxin B; 2) died within 24 h after being treated with polymyxin B.
(§2) The decision to administer polymyxin B (sulfate, Polymyxin B for Injection, Shanghai Number one Biochemical and Pharmaceutical, Shanghai, China) and its medication, including the amount, dosing interval, administration route, and treatment duration, were decided by the attending physician. Generally, the loading dose of 2.0–2.5 mg/kg, and the maintenance dose of 1.25–1.5 mg/kg given every 12 h infused over 1 h was recommended according to the guideline for optimizing polymyxins ([Tsuji et al., 2019]). In addition, inhalation of polymyxin B sulfate (25 mg q12h) was combinedly used.
All the blood samples were collected at least 48 h after initiating polymyxin B ([Tsuji et al., 2019]). In each patient, four blood samples were collected: 0.5 h before starting the infusion, 1, 2, and 6 h after completing the infusion, respectively. After sampling, blood samples were immediately centrifuged at 15,000 rpm for 5 min and stored at −80°C. The concentrations of polymyxin B in the blood samples were determined by a validated high-performance liquid chromatography-tandem mass spectrometry (LC-MS/MS) assay ([Thomas et al., 2012]). The calibration range of polymyxin B by the method was 0.1–30 μg/ml. The method validations including selectivity, recovery, precision, accuracy, matrix effect, calibration curve, and stability met the requirement of FDA principles.
Nonlinear mixed-effects modeling (NONMEM) program (version 7.4, Icon Development Solutions, Ellicott City, MD, United States) and Pirana (version 2.9.7) was used to perform PK analysis of polymyxin B. R (Version 3.6.1) was used to analyze the NONMEM output. The first-order conditional estimation with the interaction between inter-patient variability and residual variability was used for model development.
One- or two-compartment structural model with first-order elimination were explored for the concentration-time profiles. Visual inspection of diagnostic plots and goodness-of-fit criteria, condition number, and improvement of the objective function value (OFV) were performed to evaluate the base model. The pharmacokinetic parameters used for this study were clearance (CL) and volume of distribution (V). Between-subject variability (BSV) was assessed using the exponential model (Eq. 1). Pi=P×EXP(ETA( ηi)) (1) Pi was the individual patient PK parameter; P was the typical value; ηi was the interpatient random variation.
Residual variability was assessed by additive (Eq. 2), proportional (Eq. 3), or combined (additive plus proportional) (Eq. 4) error models, respectively. The optimal one was chosen based on the decrease in OFV. Y=F+EPS (1) (2) Y=F+F×EPS (1) (3) Y=F+F×EPS (1)+EPS(2) (4) Y was the individual observed concentration; F was the individual predictive concentration; EPS was the residual random variation.
Relationships between the potential covariates and individual PK parameters were examined visually. […]

[2] = parenteral polymyxin B, mouse infection studies; ref Nang et al., 2021; cited from earlier work
Description: The urinary recovery of polymyxin B is low and non-renal clearance is considered the major route of the clearance of polymyxin B ([Tsuji et al., 2019]), but it undergoes extensive reabsorption by renal tubular cells ([Nang et al., 2021]).

[3] = cited from earlier work
Description: Supplement DataSheet1.docx, table 2: Table S2. […] The urinary recovery of polymyxin B is low and non-renal clearance is considered the major route of the clearance of polymyxin B ([Tsuji et al., 2019]), but it undergoes extensive reabsorption by renal tubular cells ([Nang et al., 2021]). […] The ratio of the area of unbound concentration-time curve to the MIC (fAUC/MIC) is the best PK/PD index predicting bacterial killing for polymyxins ([Dudhani et al., 2010a]; [Dudhani et al., 2010b]; [Cheah et al., 2015]). The fAUC/MIC value ≥20 at various MICs (0.5–2 mg/L) was used as the target ([Sandri et al., 2013]), where f (assumed to be 0.42) is the unbound fraction of polymyxin B ([Sandri et al., 2013]). The probability of target attain ... || (+ 2 further places)

[4] = system: carbapenem-resistant organisms (A. baumannii, P. aeruginosa, K. pneumoniae, E. cloacae); experiment: Clinical treatment efficacy and microbiological efficacy in lung transplant recipients with pneumonia; assay type: in vivo, human
Description: as §1
The demographic characteristics, laboratory data, pathogenic bacteria, medication information, and adverse events of polymyxin B sulfate were acquired from the patients’ medical records. Clinical success was defined as improvement of clinical symptoms and parameters including body temperature, biochemistry indicators of infection (white cell count ≤ 10^9, C-reactive protein ≤10 mg/L, procalcitonin <0.05 ng/ml, and erythrocyte sedimentation rate <15 mm/h), and clinician-documented improvement at the end of treatment ([Yu et al., 2022]). RIFLE (Risk, Injury, Failure, Loss of function, and End-stage kidney disease) criteria were used to assess the acute kidney injury (AKI) caused by polymyxin B ([Han et al., 2022]). The definition of nephrotoxicity caused by polymyxin B was further confirmed using the Naranjo criteria. Hyperpigmentation is defined as the darkening of the skin’s natural color, usually due to an increase in melanin deposition in the epidermis or dermis ([Lu and Hou, 2020]).
as §2

[5] = system: P. aeruginosa; details: thigh infection model, ref Cheah et al., 2015; cited from earlier work
Description: (§3) This is the first study to simulate the PTA and AUCss,24h of different dosage regimens in lung transplant patients. In vitro and animal studies pointed out that fAUC/MIC is the PK/PD index that is best correlated with the efficacy of polymyxins ([Tsuji et al., 2019]). In the thigh infection model, the fAUC/MIC values of colistin for 2log10 bacterial killings were approximately 20 for P. aeruginosa and Acinetobacter Baumannii ([Cheah et al., 2015]). Therefore, considering the similar molecular structures and in vitro activity of colistin and polymyxin B, the fAUC/MIC ≥20 was determined as the P ...

[6] = system: Acinetobacter Baumannii; details: thigh infection model, ref Cheah et al., 2015; cited from earlier work
Description: as §3

[7] = bootstrap of final model, median estimate, 1,000 replicates
[8] = adult patients, n = 35, 1 CMT, ref Manchandani et al. 2018 [29]
[9] = adult patients, n = 43, 1 CMT, ref Kubin et al. 2018 [31]
[10] = adult patients, n = 46, 2 CMT, ref Wang et al. 2020 [27]
[11] = adult patients, n = 52, 2 CMT, ref Miglis et al. 2018 [28]
[12] = adult patients, n = 52, ref Miglis et al. 2018 [28]
[13] = critically ill patients, n = 24, 2 CMT, ref Sandri et al. 2013 [22]

CC[C@H](C)CCCCC(=O)N[C@@H](CCN)C(=O)N[C@H](C(=O)N[C@@H](CCN)C(=O)N[C@H]1CCNC(=O)[C@H]([C@@H](C)O)NC(=O)[C@H](CCN)NC(=O)[C@H](CCN)NC(=O)[C@H](CC(C)C)NC(=O)[C@@H](Cc2ccccc2)NC(=O)[C@H](CCN)NC1=O)[C@@H](C)O [polymyxin B] (X1-[Dab]T[Dab][Dab][Dab][dF]L[Dab][Dab]T; lactam 4-C)
θCL, typical value of clearance [1, 7]: 1.72 L/h | θV, typical value of volume of distribution [1, 7]: 14.3 L | effect of concomitant furosemide or albumin on the PK of polymyxin B ([1]; covariate test in lung transplant recipients, limited number of patients): did not significantly affect the PK | θV, typical value of volume of distribution ([1]; final model estimate, 1-compartment): 14.4 L | CrCL on CL (θ1), exponential value for CrCL as covariate of CL ([1]; final model estimate, CrCL/78.49): 0.681 | clearance ([1]; human, plasma, iv, base model estimate (no covariate), read-out: TVCL, typical value of clearance (converted)): 27.5 mL/min | clearance ([1]; human, plasma, iv, final model estimate, 1-compartment, first-order elimination, at median CrCL 78.49 ml/min, read-out: θCL, typical value of clearance (converted)): 28.7 mL/min | clearance ([1]; human, plasma, iv, present study, lung transplant patients, n = 34, read-out: CL (PK Parameters) (converted)): 31.2 mL/min | Vd ([1]; human, plasma, iv, base model estimate, read-out: TVV, typical value of volume): 14.6 L | AUC ([1]; mean ± SD, 34 lung transplant recipients, AUC0-24 by linear-log trapezoidal rule from Bayesian-predicted concentrations, SD): 69660 ± 35920 ng·h/mL | penetration in the lungs [2]: poor penetration in the lungs | CL, typical value in PK formula ([3]; adult critically ill patients, n = 32, 1 CMT, CL = 1.59+(CrCL/80)^0.408, ref Yu et al. 2021 [26]): 1.59 L/h | V ([3]; adult critically ill patients, n = 32, 1 CMT, ref Yu et al. 2021 [26]): 20.5 L | CL (PK Parameters) ([3]; adult critically ill patients, n = 32, ref Yu et al. 2021 [26]): 1.75 L/h | CL in PK formula [3, 8]: 2.5 L/h | V [3, 8]: 34.3 L | CL (PK Parameters), mean ([3]; adult patients, n = 35, mean, ref Manchandani et al. 2018 [29]): 2.5 L/h | CL in PK formula [3, 9]: 2.37 L/h | V [3, 9]: 33.4 L | Q [3, 10]: 13.518 L/h | V [3, 10]: 6.218 L | V2 [3, 10]: 11.922 L | CL, typical value in PK formula ([3]; adult patients, n = 46, 2 CMT, ×(CrCL/105.9)^0.362, ref Wang et al. 2020 [27]): 1.786 L/h | CL (PK Parameters), median ([3]; adult patients, n = 46, median, ref Wang et al. 2020 [27]): 1.786 L/h | Q [3, 11]: 2.32 L/h | Vc [3, 11]: 33.77 L | Vp [3, 11]: 78.20 L | CL, typical value in PK formula ([3]; adult patients, n = 52, 2 CMT, ×(TBW/75)^0.75, ref Miglis et al. 2018 [28]): 2.63 L/h | CL (PK Parameters) [3, 12]: 2.63 ± 1.41 L/h | V (PK Parameters) [3, 12]: 33.77 ± 15.21 L | f, unbound fraction of polymyxin B ([3]; assumed value used for fAUC/MIC, ref Sandri et al., 2013): 0.42 | effect of inhalation therapy on the exposure of polymyxin B in blood ([3]; co-inhalation 25 mg q12h, critically ill patients, ref Yu et al., 2021): did not significantly increase the exposure | CLic [3, 13]: 2.43 mL/min/kg | V1 [3, 13]: 0.0939 L/kg | V2 [3, 13]: 0.330 L/kg | CL, typical value in PK formula ([3]; critically ill patients, n = 24, 2 CMT, ×(TBW/75)^0.75, ref Sandri et al. 2013 [22]): 0.46 mL/min/kg | urinary recovery ([3]; non-renal clearance considered the major route, ref Tsuji et al., 2019): low | CL, typical value in PK formula ([3]; renal transplant patients, n = 50, 1 CMT, CL = 1.18×(CrCL/22.2)^0.14, ref Li et al. 2021 [14]): 1.18 L/h | V ([3]; renal transplant patients, n = 50, 1 CMT, ref Li et al. 2021 [14]): 12.09 L | Clinical anti-infective outcome: Failed ([4]; 5 of 34 patients, iv plus inhaled polymyxin B): 5 (14.71%) | Clinical anti-infective outcome: Cured ([4]; 12 of 34 patients, iv plus inhaled polymyxin B, treatment 17.94 ± 7.13 days): 12 (35.29%) | Clinical anti-infective outcome: Improved ([4]; 17 of 34 patients, iv plus inhaled polymyxin B): 17 (50%) | patients considered of clinical cure or improved ([4]; 29 of 34 patients, end of treatment): 85.29%

colistin
fAUC/MIC value for 2log10 bacterial killings [5]: approximately 20 | fAUC/MIC value for 2log10 bacterial killings [6]: approximately 20
